# Test results reported in patent US20100317607A1, “USE OF COMPOUNDS FOR PREPARING ANTI-TUBERCULOSIS AGENTS” (INFECTIOUS DISEASE RESEARCH INSTITUTE, priority 2007, published 2010).
# Where a name gives a salt, the structure may show the parent alone.
# How the values were obtained:
# [1] = tested on: H37Rv strain of M. tuberculosis; assay: Alamar Blue Susceptibility Test (MABA); assay type: cell-based; settings: H37Rv strain of M. tuberculosis, Alamar Blue; for MIC: Mycobacterium tuberculosis, read-out: MABA (TB growth inhibition, colourimetric assay)
# [2] = tested on: non replicating phase of M. tuberculosis (H37Rv with a plasmid with an acetimidase promoter driving a luciferase gene); assay: microbe, parasite or virus in culture; assay type: cell-based; settings: non replicating M. tuberculosis H37Rv luciferase strain; for MIC: Mycobacterium tuberculosis, read-out: LORA (TB growth inhibition, MIC)
structure (smiles),measurement,setting,value
"COc1ccc(CCNc2nc(N3CCCCC3)nc3ccccc23)cc1 [Compound 84, N-(4-Methoxyphenethyl)-2-(piperidin-1-yl)quinazolin-4-amine hydrochloride]",MIC,[1],< 10 µM
same,MIC,[2],10 to 50 µM
"FC(F)(F)c1ccccc1CNc1nc(N2CCCCC2)nc2ccccc12 [Compound 42, 2-(Piperidin-1-yl)-N-(2-(trifluoromethyl)benzyl)quinazolin-4-amine]",MIC,[1],< 10 µM
same,MIC,[2],10 to 50 µM
"Clc1ccc(CNc2nc(N3CCCCC3)nc3ccccc23)c(Cl)c1 [Compound 69, N-(2,4-Dichlorobenzyl)-2-(piperidin-1-yl)quinazolin-4-amine]",MIC,[1],< 10 µM
same,MIC,[2],10 to 50 µM
"c1ccc2c(NC34CC5CC(CC(C5)C3)C4)nc(N3CCCCC3)nc2c1 [Compound 59, N-(1′-Adamantyl)-2-(piperidin-1-yl)quinazolin-4-amine]","MABA (TB growth inhibition, colourimetric assay)",[1],+++ (10-50 μM=+++)
same,"LORA (TB growth inhibition, MIC)",[2],++++ (key: TB growth<10 μM=++++; 10-50 μM=+++; 50-128 μM=++; >128 μM but inhibited=+; no inhibition=−)
"c1ccc(CNc2nc(N3CCOCC3)nc3ccccc23)cc1 [Compound 5, N-Benzyl-2-morpholinoquinazolin-4-amine]",MIC,[1],50 to 128 µM
same,MIC,[2],50 to 128 µM
"c1ccc(CNc2nc(N3CCC(c4ccccc4)CC3)nc3ccccc23)cc1 [Compound 132, N-Benzyl-2-(4-phenylpiperidin-1-yl)quinazolin-4-amine hydrochloride]",MIC,[1],< 10 µM
same,MIC,[2],< 10 µM
"COc1cc2nc(N3CCOCC3)nc(NCc3ccccc3)c2cc1OC [Compound 17, N-Benzyl-6,7-dimethoxy-2-morpholinoquinazolin-4-amine]",MIC,[1],50 to 128 µM
same,"LORA (TB growth inhibition, MIC)",[2],−
"Clc1ccc(CNc2nc(N3CCCCC3)nc3ccccc23)cc1Cl [Compound 68, N-(3,4-Dichlorobenzyl)-2-(piperidin-1-yl)quinazolin-4-amine]",MIC,[1],< 10 µM
same,MIC,[2],< 10 µM
"c1ccc(CNc2nc(N3CCN(c4ccccc4)CC3)nc3ccccc23)cc1 [Compound 133, N-Benzyl-2-(4-phenylpiperazin-1-yl)quinazolin-4-amine hydrochloride]",MIC,[1],< 10 µM
same,MIC,[2],10 to 50 µM
"Clc1ccc(CCNc2nc(N3CCCCC3)nc3ccccc23)cc1 [Compound 83, N-(4-Chlorophenethyl)-2-(piperidin-1-yl)quinazolin-4-amine hydrochloride]",MIC,[1],< 10 µM
same,MIC,[2],< 10 µM
"Clc1ccc(CNc2nc(NCc3ccccc3)c3ccccc3n2)cc1 [Compound 127, N^4-Benzyl-N^2-(4-chlorobenzyl)quinazoline-2,4-diamine hydrochloride]",MIC,[1],< 10 µM
same,MIC,[2],< 10 µM
"Clc1cccc(CNc2nc(N3CCCCC3)nc3ccccc23)c1 [Compound 41, N-(3-Chlorobenzyl)-2-(piperidin-1-yl)quinazolin-4-amine]",MIC,[1],< 10 µM
same,MIC,[2],10 to 50 µM
"c1ccc2c(CNc3nc(N4CCCCC4)nc4ccccc34)cccc2c1 [Compound 37, N-(Naphthalen-1-ylmethyl)-2-(piperidin-1-yl)quinazolin-4-amine]",MIC,[1],< 10 µM
same,MIC,[2],< 10 µM
"Fc1ccccc1CNc1nc(N2CCCCC2)nc2ccccc12 [Compound 65, N-(2-Fluorobenzyl)-2-(piperidin-1-yl)quinazolin-4-amine]",MIC,[1],< 10 µM
same,MIC,[2],10 to 50 µM
"FC(F)(F)c1ccc(CNc2nc(NCc3ccccc3)c3ccccc3n2)cc1 [Compound 128, N^4-Benzyl-N^2-(4-(trifluoromethyl)benzyl)quinazoline-2,4-diamine hydrochloride]",MIC,[1],< 10 µM
same,MIC,[2],< 10 µM
"Clc1ccc(CNc2nc(N3CCCCC3)nc3ccccc23)cc1 [Compound 34, N-(4-Chlorobenzyl)-2-(piperidin-1-yl)quinazolin-4-amine]",MIC,[1],< 10 µM
same,MIC,[2],10 to 50 µM
"c1ccc(CNc2nc(N3CCCCC3)nc3ccccc23)cc1 [Compound 4, N-Benzyl-2-(piperidin-1-yl)quinazolin-4-amine]",MIC,[1],< 10 µM
same,MIC,[2],10 to 50 µM
"Clc1ccc(CNc2nc(N3CCCCC3)c3ccccc3n2)c(Cl)c1 [Compound 112, N-(2,4-Dichlorobenzyl)-4-(piperidin-1-yl)quinazolin-2-amine hydrochloride]",MIC,[1],< 10 µM
same,MIC,[2],< 10 µM
"Cn1ncc2c(NCc3ccccc3)nc(N3CCCC3)nc21 [Compound 20, N-Benzyl-1-methyl-6-(pyrrolidin-1-yl)-1H-pyrazolo[3,4-d]pyrimidin-4-amine]",MIC,[1],50 to 128 µM
same,"LORA (TB growth inhibition, MIC)",[2],−
"Fc1ccc(CNc2nc(N3CCCCC3)nc3ccccc23)cc1 [Compound 63, N-(4-Fluorobenzyl)-2-(piperidin-1-yl)quinazolin-4-amine]",MIC,[1],< 10 µM
same,MIC,[2],10 to 50 µM
"Clc1ccccc1CNc1nc(N2CCCCC2)nc2ccccc12 [Compound 40, N-(2-Chlorobenzyl)-2-(piperidin-1-yl)quinazolin-4-amine]",MIC,[1],< 10 µM
same,MIC,[2],10 to 50 µM
"Cc1cccc(CNc2nc(N3CCCCC3)nc3ccccc23)c1 [Compound 80, N-(3-Methylbenzyl)-2-(piperidin-1-yl)quinazolin-4-amine hydrochloride]",MIC,[1],< 10 µM
same,MIC,[2],10 to 50 µM
"CC(Nc1nc(N2CCCCC2)nc2ccccc12)c1ccccc1 (stereo not drawn) [Compound 12, N-(1-Phenylethyl)-2-(piperidin-1-yl)quinazolin-4-amine]",MIC,[1],10 to 50 µM
same,MIC,[2],10 to 50 µM
"CC(Nc1nc(N2CCNCC2)nc2ccccc12)c1ccccc1 (stereo not drawn) [Compound 8, N-(1-Phenylethyl)-2-(piperazin-1-yl)quinazolin-4-amine]",MIC,[1],50 to 128 µM
same,MIC,[2],10 to 50 µM
"FC(F)(F)c1ccc(CNc2nc(N3CCCC3)nc3ccccc23)cc1 [Compound 78, 2-(Pyrrolidin-1-yl)-N-(4-(trifluoromethyl)benzyl)quinazolin-4-amine]",MIC,[1],< 10 µM
same,MIC,[2],10 to 50 µM
"c1ccc(CN(Cc2ccccc2)c2nc(N3CCCCC3)nc3ccccc23)cc1 [Compound 66, N,N-Dibenzyl-2-(piperidin-1-yl)quinazolin-4-amine]",MIC,[1],< 10 µM
same,MIC,[2],10 to 50 µM
"c1ccc(CNc2nc(NC3Cc4ccccc4C3)nc3ccccc23)cc1 [Compound 131, N^4-Benzyl-N^2-(2,3-dihydro-1H-inden-2-yl)quinazoline-2,4-diamine]",MIC,[1],< 10 µM
same,MIC,[2],< 10 µM
"CC(Nc1nc(N2CCN(S(=O)(=O)c3ccccc3)CC2)nc2ccccc12)c1ccccc1 (stereo not drawn) [Compound 15, N-(1-Phenylethyl)-2-(4-(phenylsulfonyl)piperazin-1-yl)quinazolin-4-amine]",MIC,[1],50 to 128 µM
same,"LORA (TB growth inhibition, MIC)",[2],−
"FC(F)(F)c1ccc(CNc2nc(N3CCCCC3)nc3ccccc23)cc1 [Compound 38, 2-(Piperidin-1-yl)-N-(4-(trifluoromethyl)benzyl)quinazolin-4-amine]",MIC,[1],< 10 µM
same,MIC,[2],< 10 µM
"c1ccc(CNc2nc(N3CCc4ccccc4C3)nc3ccccc23)cc1 [Compound 30, N-Benzyl-2-(3,4-dihydroisoquinolin-2(1H)-yl)quinazolin-4-amine]",MIC,[1],< 10 µM
same,MIC,[2],< 10 µM
"c1ccc2c(NC3C4CC5CC(C4)CC3C5)nc(N3CCCCC3)nc2c1 (stereo not drawn) [Compound 60, N-(2′-Adamantyl)-2-(piperidin-1-yl)quinazolin-4-amine]","MABA (TB growth inhibition, colourimetric assay)",[1],+++ (10-50 μM=+++)
same,"LORA (TB growth inhibition, MIC)",[2],++++ (key: TB growth<10 μM=++++; 10-50 μM=+++; 50-128 μM=++; >128 μM but inhibited=+; no inhibition=−)
"COc1ccc(CNc2nc(N3CCCCC3)nc3ccccc23)cc1 [Compound 44, N-(4-Methoxybenzyl)-2-(piperidin-1-yl)quinazolin-4-amine]",MIC,[1],< 10 µM
same,MIC,[2],10 to 50 µM
"COc1ccc(N2CCN(c3nc(NCc4ccccc4)c4ccccc4n3)CC2)cc1 [Compound 136, N-Benzyl-2-(4-(4-methoxyphenyl)piperazin-1-yl)quinazolin-4-amine hydrochloride]",MIC,[1],< 10 µM
same,MIC,[2],10 to 50 µM
"C[C@@H](Nc1nc(N2CCCCC2)nc2ccccc12)c1ccc(C(F)(F)F)cc1 [Compound 117, (R)-2-(Piperidin-1-yl)-N-(1-(4-(trifluoromethyl)phenyl)ethyl)quinazolin-4-amine]",MIC,[1],< 10 µM
same,MIC,[2],< 10 µM
"Cc1ccc(CNc2nc(NCc3ccc(C(F)(F)F)cc3)c3ccccc3n2)cc1 [Compound 79, N^4-(4-Trifluoromethylbenzyl)-N^2-(4-methylbenzyl)quinazoline-2,4-diamine]",MIC,[1],< 10 µM
same,MIC,[2],10 to 50 µM
"FC(F)(F)c1ccc(N2CCN(c3nc(NCc4ccccc4)c4ccccc4n3)CC2)cc1 [Compound 135, N-Benzyl-2-(4-(4-(trifluoromethyl)phenyl)piperazin-1-yl)quinazolin-4-amine hydrochloride]",MIC,[1],< 10 µM
same,MIC,[2],10 to 50 µM
"c1ccc(CNc2nc(NCc3ccccc3)c3ccccc3n2)cc1 [Compound 18, N^2,N^4-Dibenzylquinazoline-2,4-diamine]",MIC,[1],10 to 50 µM
same,MIC,[2],10 to 50 µM
"c1ccc(CNc2nc(N3CCCC3)nc3ccccc23)cc1 [Compound 22, N-Benzyl-2-(pyrrolidin-1-yl)quinazolin-4-amine]",MIC,[1],< 10 µM
same,MIC,[2],10 to 50 µM
"COC(=O)c1ccc(CNc2nc(N3CCCCC3)nc3ccccc23)cc1 [Compound 93, Methyl 4-((2-(piperidin-1-yl)quinazolin-4-ylamino)methyl)benzoate]",MIC,[1],< 10 µM
same,MIC,[2],50 to 128 µM
"c1ccc2c(NCC3CCCCC3)nc(N3CCCCC3)nc2c1 [Compound 45, N-(Cyclohexylmethyl)-2-(piperidin-1-yl)quinazolin-4-amine]",MIC,[1],< 10 µM
same,MIC,[2],10 to 50 µM
"CN(Cc1ccccc1)c1nc(N2CCCCC2)nc2ccccc12 [Compound 35, N-Benzyl-N-methyl-2-(piperidin-1-yl)quinazolin-4-amine]",MIC,[1],< 10 µM
same,MIC,[2],< 10 µM
"c1ccc(CNc2nc(N3Cc4ccccc4C3)nc3ccccc23)cc1 [Compound 130, N-Benzyl-2-(isoindolin-2-yl)quinazolin-4-amine]",MIC,[1],< 10 µM
same,"LORA (TB growth inhibition, MIC)",[2],−
